Where two headings read alike, the source gives them in different places.
Assays:
[1] = biological target: T1, pCMX-Gal-mPPARγ-LBD (Mus musculus, UniProt P37238); test: Gal4 chimeric receptor luciferase reporter (Method 2); format: cell-based; conditions: SHEP-1 cells, 3 μM, 5 μM, 10 μM and 20 μM
T1 construct: expressed in transfected cells; host or cells: SHEP-1 cells
T1 sequence (P37238 238-503 limits assumed): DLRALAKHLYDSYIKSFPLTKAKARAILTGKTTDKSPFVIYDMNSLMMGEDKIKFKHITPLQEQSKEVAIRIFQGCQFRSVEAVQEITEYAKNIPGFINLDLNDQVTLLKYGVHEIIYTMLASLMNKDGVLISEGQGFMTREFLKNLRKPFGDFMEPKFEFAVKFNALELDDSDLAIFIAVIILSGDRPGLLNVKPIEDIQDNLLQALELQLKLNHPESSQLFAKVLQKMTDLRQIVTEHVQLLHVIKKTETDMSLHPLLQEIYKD
Source text: In Method 2, SHEP-1 cancer cells were transfected with a reporter gene containing four copies of a Gal4 binding site (pMH100x4-TK-Luc) and chimeric receptors of a single PPAR isoform (pCMX-Gal-mPPARα-LBD, pCMX-Gal-mPPARδ-LBD, or pCMX-Gal-mPPARγ-LBD, respectively) as previously described in Kim et al, Toxicological Sciences, 85, (2005), pp. 585-593. When C19H24N3O5S5Pr binds to the ligand binding domain (LBD) of the chimeric receptor, the DNA binding domain of Gal4 binds to co-transfected Gal4 binding site and initiates transcription of the firefly luciferase.

[2] = system: LC3 II; test: LC3 II formation by Western blot; format: cell-based; conditions: SHEP-1 and SHSY5Y cells, 5 μM and 10 μM, 4 hr, 8 hr and 18 hr
[3] = system: SHEP-1 and MDA-MB-231 cancer cells; test: Morphological changes of cancer cells; format: cell-based; conditions: SHEP-1 5 μM, MDA-MB-231 10 μM, compound alone
[4] = system: PARP; conditions: SHEP-1 cells, 5 μM and 10 μM, 24 hrs
[5] = system: Bax, cytochrome C; conditions: 5 μM and 10 μM

SMILES: CS(C)=O.CS(C)=O.[O-][n+]1ccccc1[S-].[O-][n+]1ccccc1[S-].[O-][n+]1ccccc1[S-].[Pr+3] [C19H24N3O5S5Pr, praseodymium (2-mercaptopyridine N-oxide)(dimethylsulfoxide)]
- luciferase activity, PPARγ LBD chimeric receptor [1]: induction of luciferase activity
- LC3 II induction [2]: induction of phosphtidylethaonolamine (PE)-conjugated form of microtubule-associated protein 1 light chain 3 (LC3 II)
- cell morphology [3]: rounded up and also lower in cell density
- PARP cleavage (80 kDa fragment) [4]: PARP cleavage
- Bax translocation ([5]; SHEP-1 cells, 18 hr and 24 hr): causes Bax translocation to the mitochondrial fraction
- cytochrome C release ([5]; SHEP-1 cells, 18 hr and 24 hr): cytochrome C release into the cytosol
- Bax translocation ([5]; SHSY5Y cells, 24 hr): causes Bax translocation to the mitochondrial fraction
- cytochrome C release ([5]; SHSY5Y cells, 24 hr): cytochrome C release into the cytosol

— US8691851B2, “Lanthanide metal complexes useful in treating cancer” (National University of Singapore, priority 2009, dated 2014)
